Common to all, as to format: in vivo, mouse
One test deals with let-7a microRNA. The test can be described thus: RT-qPCR of let-7a expression after intramuscular ASO injection (specificity). The following applies: intramuscular administration. The text has this:
To investigate miR-133 function in brown adipose determination of satellite cells in vivo, Applicant synthesized miR-133 antagomiR (miR-133 antisense oligonucleotide (ASO)) with an antisense sequence to both miR-133a and miR-133b, as well as a control “antagomiR” (control ASO) with the same chemical modifications and not antisense to any mouse gene or EST sequence (see Experimental Procedures). Applicant performed lineage tracing to distinguish effects of miR-133 ASO on satellite cells versus other cell types. Six week old Pax7-CreER; R26R-tdTomato mice were treated with tamoxifin as before (5 consecutive daily injections), then aged to 10 weeks of age prior to initiating the experiment. Control ASO versus miR-133 ASO were injected into tibialis anterior (TA) muscles 3 days following saline injection (quiescent state) or cardiotoxin injection (to induce activation). After one month, RT-qPCR was performed using RNA isolated from several tissues to evaluate the efficacy and scope of miR-133 ASO administration.
To induce brown adipocytes in vivo, 10 mg/mL Cardiotoxin solution (50 μl) was intramuscularly injected into TA muscles of 10-week old Pax7-CreER/R26R-tdTomato mice (FIG. 4) or C57BL/6 mice (FIG. 5 and FIG. 6). Alternatively, frozen injury was performed by applying liquid nitrogen cooled tweezers tips directly onto the anterior sides of TA muscles. […]
A general note: Real-time PCR tracks product formation cycle by cycle.

Another test in a line: IPGTT glucose tolerance. The conditions noted are these: both diet groups. The text has this: (B) Retarded body weight increase over a 16-week body weight monitoring time course in mice received miR-133 ASO treatment during TA muscle regeneration (n=6 per treatment group per diet group). […] Values of total energy expenditure were plotted without normalization to lean body mass. (D) Physical activities measured within light and dark cycles during indirect calorimetry (C) reveal increased physical activities within the dark cycle for miR-133 ASO treated mice (fed the RD). Physical activities are presented as arithmetic means of beam breaking events at X-, Y- and Z-dimensions. (E) IPGTT tests for C57BL/6 mice received either control- or miR-133 ASO treatment (fed the RD; n=6 per group). Error bars: S.E.M., asterisk: significant pair-wise comparison by t-test, *: p≦0.05, **: p≦0.01, ***: p≦0.001, n.s.: not significant.
This discrepancy may be related to the abnormally low respiratory exchange ratio (˜0.76) in the control mice fed with HFD (FIG. 7D), which indicates an increased proportion of lipid oxidation in the control mice. […] In addition, miR-133 ASO treatment also led to much improved glucose tolerance in both diet groups (FIGS. 6E & 7F).

The test system of the next test is Fndc5. As to the kind of experiment: qRT-PCR of Fndc5 in ASO treated muscles. The following applies: both RD and HFD conditions. The procedure:
Normalized UCP1 levels were calculated based on the densitometry analysis of the UCP1 immunoblot and the α-Tubulin immunoblot. The interscapular brown adipose tissue (iBAT) were included as a control. Asterisk denotes the loading of the iBAT lanes on the UCP1 immunoblot was 1/100 of other lanes to avoid overloading. (B) Immunohistochemistry (IHC) of UCP1 protein reveal miR-133 antagonism induced beige adipocytes within inguinal and epididymal white adipose tissues. […] Error bars: S.E.M., asterisk: significant pair-wise comparison by t-test, *: p≦0.05, **: p≦0.01, ***: p≦0.001.
Total RNA was extracted from cells by TRIzol or Arcturus® PicoPure® RNA Isolation Kit (Applied Biosystems) following manufactures' recommendations. For RT-qPCR of mRNAs, total RNAs were reverse transcribed into cDNAs by SuperScript III (Invitrogen) and a mixture of oligodT18-20 primers and random hexamers. microRNA RT-qPCRs were performed as previously described (Shi and Chiang, 2005).

Consider “*mA*mUmAmGmCmUmGmGmUmUmGmAmAmGmGmGmGmAmC*mC*mA*mA*mAChl [miR-133 ASO]”, for which the “let-7a microRNA expression” value in the test on let-7a microRNA is “no effect”. In “IPGTT glucose tolerance”, the glucose tolerance result is “much improved”. The “expression of Fndc5 compared to control muscles” value with Fndc5 was “increased”.

Values taken from US9018188B2, “MicroRNA inhibitors” (Ottawa Hospital Research Institute, priority 2011, dated 2015).
